Results reported in US11214803B2, “Modulators of YAP1 expression” (Ionis Pharmaceuticals, Inc., priority 2019, dated 2022).
Marks after values point to notes of the source that are not given here. Strand notation (5' to 3'): a small letter for the sugar, then the base; units joined by * are phosphorothioate-linked, units joined directly phosphodiester-linked; [ ] holds rarer units or linkages, { } end groups; capitals alone tell only the bases. k = constrained ethyl (cEt); [5mC] = 5-methylcytosine; d = 2'-deoxy (DNA)

Tested on: Yap1 mRNA
Assay: Antisense inhibition of human Yap1 in A-431 cells by cEt gapmers, single dose (Example 2, RTS4814)
Assay type: cell-based
Protocol: Modified oligonucleotides were designed to target a Yap1 nucleic acid and were tested for their effect on Yap1 mRNA level in vitro. The modified oligonucleotides were tested in a series of experiments that had similar culture conditions. Cultured A-431 cells at a density of 5,000 cells per well were treated using free uptake with 2,000 nM of modified oligonucleotide. After a treatment period of approximately 48 hours, RNA was isolated from the cells and Yap1 mRNA levels were measured by quantitative real-time RTPCR. Human primer probe set RTS4814 was used to measure mRNA levels. Yap1 mRNA levels were normalized to total RNA content, as measured by RIBOGREEN®. Results are presented in the tables below as percent control of the amount of Yap1 mRNA relative to untreated control cells (% UTC). The modified oligonucleotides with percent control values marked with an asterisk (*) target the amplicon region of the primer probe set. Additional assays may be used to measure the potency and efficacy of the modified oligonucleotides targeting the amplicon region.
The newly designed modified oligonucleotides in the Tables below were designed as 3-10-3 cEt gapmers. The gapmers are 16 nucleosides in length, wherein the central gap segment comprises of ten 2′-deoxynucleosides and is flanked by wing segments on the 5′ direction and the 3′ direction comprising three nucleosides each. Each nucleoside in the 5′ wing segment and each nucleoside in the 3′ wing segment has a cEt sugar modification. The internucleoside linkages throughout each gapmer are phosphorothioate (P═S) linkages. All cytosine residues throughout each gapmer are 5-methylcytosines.
“Start site” indicates the 5′-most nucleoside to which the gapmer is targeted in the human gene sequence. “Stop site” indicates the 3′-most nucleoside to which the gapmer is targeted human gene sequence. […] Activity ofthe modified oligonucleotide may be defined in a different experiment.

[1] = Yap1 mRNA as percent of untreated control, A-431 cells, 3-10-3 cEt gapmers targeting SEQ ID NO.: 1, and 2, Table 30
[2] = Table 19, A-431 cells, 5,000 cells per well, free uptake, 2,000 nM modified oligonucleotide, approx. 48 hours, RTS4814, normalized to RIBOGREEN, Yap1 mRNA as percent of untreated control
[3] = Table 23, Yap1 mRNA as percent of untreated control, 3-10-3 cEt gapmers, single dose
[4] = A-431 cells, 5,000 cells per well, free uptake, 2,000 nM modified oligonucleotide, approx. 48 hours, RTS4814, normalized to RIBOGREEN, Table 4, asterisk (*) = targets amplicon region of primer probe set
[5] = Table 18, A-431 cells, 5,000 cells per well, free uptake, 2,000 nM modified oligonucleotide, approx. 48 hours, RTS4814, normalized to RIBOGREEN, Yap1 mRNA as percent of untreated control
[6] = Table 22, Yap1 mRNA as percent of untreated control, 3-10-3 cEt gapmers, single dose
[7] = Table 21, Yap1 mRNA, percent of untreated control, 3-10-3 cEt gapmers targeting SEQ ID NO.: 1 and 2
[8] = Table 6, A-431 cells, 5,000 cells per well, free uptake, 2,000 nM modified oligonucleotide, approx. 48 hours, RTS4814, normalized to RIBOGREEN, Yap1 mRNA relative to untreated control cells
[9] = Table 5, A-431 cells, 5,000 cells per well, free uptake, 2,000 nM modified oligonucleotide, approx. 48 hours, RTS4814, normalized to RIBOGREEN, Yap1 mRNA relative to untreated control cells
[10] = Table 24, Yap1 mRNA as percent of untreated control, 3-10-3 cEt gapmers targeting SEQ ID NO.: 1, and 2
[11] = Table 20, Yap1 mRNA, percent of untreated control, 3-10-3 cEt gapmers targeting SEQ ID NO.: 1 and 2

1074512 (kG*kG*kA*dT*dA*d[5mC]*dA*dT*dT*d[5mC]*d[5mC]*dA*d[5mC]*kT*kA*k[5mC]; antisense) [compound 1074512]
YAP1 (% UTC) [1]: 64 % UTC

1075301 (k[5mC]*kA*kG*d[5mC]*dA*dA*d[5mC]*dA*d[5mC]*d[5mC]*dT*dA*dA*kG*kG*kA; antisense) [Compound 1075301]
YAP1 (% UTC) [2]: 92 % UTC

1074537 (antisense k[5mC]*kA*kG*dT*dA*dA*dT*dA*dG*d[5mC]*dT*d[5mC]*dT*kT*kT*k[5mC]) [Compound 1074537]
YAP1 (% UTC) [3]: 3 % UTC

716517 (antisense kT*kT*k[5mC]*dA*d[5mC]*dA*dA*d[5mC]*d[5mC]*d[5mC]*d[5mC]*d[5mC]*d[5mC]*k[5mC]*k[5mC]*k[5mC]) [Compound 716517]
YAP1 (% UTC) [4]: 53 % UTC

1076516 (antisense k[5mC]*kA*kT*dA*dA*dA*d[5mC]*dA*dT*dG*dA*dG*dT*kG*kG*kT) [Compound 1076516]
YAP1 (% UTC) [5]: 8 % UTC

1076136 (k[5mC]*kA*kA*d[5mC]*dA*dA*d[5mC]*d[5mC]*dT*d[5mC]*dA*dT*dG*kT*kA*kA; antisense) [Compound 1076136]
YAP1 (% UTC) [6]: 60 % UTC

1076071 (kT*kA*kT*dT*dA*dG*dT*dA*dA*dT*dG*d[5mC]*dA*k[5mC]*kA*kG; antisense) [Compound 1076071]
YAP1 (% UTC) [7]: 14 % UTC

716549 (k[5mC]*k[5mC]*kA*d[5mC]*dT*dT*dT*dT*dG*d[5mC]*dA*dA*dT*kG*kT*kT; antisense) [Compound 716549]
YAP1 (% UTC) [8]: 44 % UTC

716476 (kG*kA*kA*d[5mC]*dT*dA*d[5mC]*dA*dA*dA*d[5mC]*dT*dA*kG*kA*kA; antisense) [Compound 716476]
YAP1 (% UTC) [9]: 91 % UTC

1074960 (antisense k[5mC]*kT*kT*dA*dA*d[5mC]*d[5mC]*d[5mC]*dG*dG*dG*dT*dT*kT*kT*kT) [compound 1074960]
YAP1 (% UTC) [1]: 81 % UTC

716509 (antisense kT*kA*kT*dA*d[5mC]*d[5mC]*d[5mC]*dA*dA*dT*dT*dT*dT*kG*k[5mC]*kA) [Compound 716509]
YAP1 (% UTC) [9]: 70 % UTC

1075943 (kG*kT*kA*dT*dA*dT*d[5mC]*dA*dA*dA*d[5mC]*d[5mC]*dT*kT*kT*kT; antisense) [Compound 1075943]
YAP1 (% UTC) [7]: 15 % UTC

1074632 (antisense kT*k[5mC]*kA*dT*dA*dG*d[5mC]*dA*dG*d[5mC]*dT*dT*dT*kT*kG*k[5mC]) [Compound 1074632]
YAP1 (% UTC) [6]: 12 % UTC

1074122 (antisense k[5mC]*kT*kG*d[5mC]*dG*dA*dG*dG*d[5mC]*dA*d[5mC]*dT*d[5mC]*kG*kG*kA) [Compound 1074122]
YAP1 (% UTC) [10]: 73 % UTC

1075464 (antisense k[5mC]*k[5mC]*kA*d[5mC]*dT*dA*dA*dA*d[5mC]*d[5mC]*dA*d[5mC]*d[5mC]*kT*kA*kA) [Compound 1075464]
YAP1 (% UTC) [6]: 77 % UTC

1075592 (k[5mC]*kG*kT*dA*dA*dT*dA*dA*dT*d[5mC]*dA*d[5mC]*d[5mC]*kT*kT*kA; antisense) [Compound 1075592]
YAP1 (% UTC) [6]: 55 % UTC

1074532 (antisense kG*kA*kA*d[5mC]*dA*d[5mC]*dT*dA*dA*dA*d[5mC]*dT*dA*k[5mC]*kT*kT) [Compound 1074532]
YAP1 (% UTC) [5]: 59 % UTC

1075825 (k[5mC]*k[5mC]*k[5mC]*d[5mC]*dT*dA*dA*dA*dG*dA*dA*dG*dA*kT*kT*kT; antisense) [compound 1075825]
YAP1 (% UTC) (Yap1 mRNA as percent of untreated control, A-431 cells, 3-10-3 cEt gapmers targeting SEQ ID NO.: 1, and 2, Table 31): 44 % UTC

1075175 (antisense kA*k[5mC]*kT*dG*dA*dA*dA*dG*dA*dT*dT*d[5mC]*d[5mC]*kA*kT*kG) [Compound 1075175]
YAP1 (% UTC) [7]: 99 % UTC

1075504 (k[5mC]*kT*kT*dA*dA*dA*dT*dG*dA*dG*dA*dG*dA*kA*k[5mC]*k[5mC]; antisense) [compound 1075504]
YAP1 (% UTC) [1]: 71 % UTC

716570 (kA*kA*kG*dT*dG*dT*dT*dT*dA*dG*dG*d[5mC]*dA*kA*kG*k[5mC]; antisense) [Compound 716570]
YAP1 (% UTC) [8]: 56 % UTC

1074470 (k[5mC]*k[5mC]*k[5mC]*d[5mC]*d[5mC]*d[5mC]*dA*d[5mC]*d[5mC]*dG*dA*d[5mC]*d[5mC]*k[5mC]*kT*kG; antisense) [Compound 1074470]
YAP1 (% UTC) [11]: 69 % UTC

1075237 (antisense kG*k[5mC]*kT*dG*dA*dA*dA*dA*dT*dG*d[5mC]*dT*dA*kA*k[5mC]*kT) [Compound 1075237]
YAP1 (% UTC) [2]: 105 % UTC

1074760 (kA*k[5mC]*kA*dA*d[5mC]*d[5mC]*dA*dA*dG*dA*dA*dG*d[5mC]*kA*kG*kT; antisense) [Compound 1074760]
YAP1 (% UTC) [6]: 11 % UTC

716462 (kT*kT*kA*dA*dA*d[5mC]*dT*dA*d[5mC]*d[5mC]*dA*dG*dT*kG*kA*kA; antisense) [Compound 716462]
YAP1 (% UTC) [8]: 86 % UTC

1075525 (kT*kT*kA*dA*dT*dT*dA*dA*dG*dG*dG*d[5mC]*d[5mC]*k[5mC]*kA*k[5mC]; antisense) [Compound 1075525]
YAP1 (% UTC) [2]: 130 % UTC

1074469 (k[5mC]*k[5mC]*k[5mC]*dA*d[5mC]*d[5mC]*dG*dA*d[5mC]*d[5mC]*d[5mC]*dT*dG*k[5mC]*k[5mC]*kA; antisense) [Compound 1074469]
YAP1 (% UTC) [2]: 77 % UTC

1074822 (kT*kA*kG*dA*dA*dA*dA*dG*dT*dG*dT*dT*dA*kA*kG*k[5mC]; antisense) [Compound 1074822]
YAP1 (% UTC) [11]: 25 % UTC

1074568 (antisense kG*kA*kA*d[5mC]*d[5mC]*dT*dA*d[5mC]*dT*d[5mC]*dA*d[5mC]*dT*kG*kA*kA) [Compound 1074568]
YAP1 (% UTC) [6]: 12 % UTC

1075954 (kA*kT*kT*dT*dA*dA*dG*dG*d[5mC]*dT*dG*dT*dG*kT*kT*k[5mC]; antisense) [compound 1075954]
YAP1 (% UTC) (Table 32, Yap1 mRNA, percent of untreated control, 3-10-3 cEt gapmers targeting SEQ ID NO.: 1, and 2): 50 % UTC

716367 (k[5mC]*kA*kT*dG*dG*dG*d[5mC]*dA*d[5mC]*dG*dG*dT*d[5mC]*kT*kG*kG; antisense) [Compound 716367]
YAP1 (% UTC) [4]: 70 % UTC

1074859 (antisense kG*kT*kA*dA*d[5mC]*dA*dT*dT*dG*dG*dT*dA*d[5mC]*kT*kA*kT) [Compound 1074859]
YAP1 (% UTC) (Table 25, Yap1 mRNA as percent of untreated control, 3-10-3 cEt gapmers targeting SEQ ID NO.: 1, and 2): 16 % UTC

716425 (kG*k[5mC]*kA*dA*dT*dA*d[5mC]*dA*dT*dT*dA*dA*d[5mC]*kA*kG*k[5mC]; antisense) [Compound 716425]
YAP1 (% UTC) [9]: 71 % UTC

1076426 (kA*k[5mC]*kG*dG*dG*dA*dA*dA*dA*dT*dT*d[5mC]*dT*kG*kG*kA; antisense) [Compound 1076426]
YAP1 (% UTC) [10]: 9 % UTC

716485 (kA*k[5mC]*kT*dA*d[5mC]*d[5mC]*dA*dA*dT*dA*dT*dA*d[5mC]*kA*kT*kT; antisense) [Compound 716485]
YAP1 (% UTC) [9]: 84 % UTC

1075528 (kA*kT*k[5mC]*dG*dA*dA*dG*dG*dG*d[5mC]*dA*dA*dA*k[5mC]*kT*k[5mC]; antisense) [Compound 1075528]
YAP1 (% UTC) [6]: 42 % UTC

1074729 (antisense kA*k[5mC]*kA*d[5mC]*dT*dG*dA*dG*dG*dT*dA*dT*dA*kA*k[5mC]*kT) [Compound 1074729]
YAP1 (% UTC) [3]: 9 % UTC

1074440 (kG*k[5mC]*kT*dG*dT*dG*dA*d[5mC]*dA*dT*dG*dA*dA*kG*k[5mC]*kA; antisense) [Compound 1074440]
YAP1 (% UTC) [6]: 38* % UTC

1076330 (kG*kA*kA*dT*dT*dA*dT*dA*d[5mC]*dT*dG*dG*d[5mC]*kT*kA*k[5mC]; antisense) [Compound 1076330]
YAP1 (% UTC) [10]: 3 % UTC

1075590 (k[5mC]*kA*kT*d[5mC]*dA*dA*dA*dA*dT*dT*dA*dG*d[5mC]*kA*kG*kG; antisense) [Compound 1075590]
YAP1 (% UTC) [11]: 50 % UTC
